According to patent publication US20260158009A1 (GENZYME CORPORATION, priority 2023, published 2026):

Assays:
[1] = target: T1, hRIPK1 (aa 1-375) fusion protein (Homo sapiens, UniProt Q13546); assay: ADP-Glo kinase assay: catalytic activity of RIPK1 (autophosphorylation, conversion of ATP to ADP); format: biochemical
T1 construct: hRIPK1 (aa 1-375) fusion protein
T1 sequence (Q13546 1-375): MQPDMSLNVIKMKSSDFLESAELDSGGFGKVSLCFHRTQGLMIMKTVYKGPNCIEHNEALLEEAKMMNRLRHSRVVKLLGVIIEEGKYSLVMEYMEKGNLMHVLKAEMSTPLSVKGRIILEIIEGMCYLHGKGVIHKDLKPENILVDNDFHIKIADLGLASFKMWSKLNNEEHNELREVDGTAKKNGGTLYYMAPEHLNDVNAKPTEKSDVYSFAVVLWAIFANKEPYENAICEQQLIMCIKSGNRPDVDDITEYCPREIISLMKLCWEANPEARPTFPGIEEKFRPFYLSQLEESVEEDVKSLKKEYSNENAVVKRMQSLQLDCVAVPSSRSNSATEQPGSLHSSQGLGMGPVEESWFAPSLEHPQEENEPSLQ
How it was run: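 hRIPK1 (aa 1-375) fusion protein (3.6 μg/ml final) was preincubated 30 min at rt with compound (33300-1.69 nM, 1% DMSO), then 50 μM ATP was added for 240 min at rt. ADP from autophosphorylation was measured by ADP-Glo luminescence and curves fitted by nonlinear regression.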

U937 cells = assay: Cellular assay in U937 cells: activity of RIPK1 inhibitors on TNFα/zVAD.fmk-induced cell death (necroptosis), CellTiter 96 AQueous (MTS) readout; format: cell-based; conditions: Homo sapiens, U-937
How it was run: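 Necroptosis was measured by viable-cell MTS reduction (4 h, absorbance 490 nm) after overnight (18–24 h) 37° C culture. Cell suspensions of U937 cells carried TNFα (100 ng/ml) plus zVAD.fmk (50 μM) before compound was added. A 10-point curve (10 μM–0.26 nM or 1 μM–0.07 nM) was run in duplicate, normalised to the control lacking TNFα/zVAD.fmk.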

Row | SMILES | IC50 [1] | IC50 (U937 cells)
1 | Cc1nc2cc(C[C@H]3CC[C@H](C(=O)N4OCC[C@H]4c4csc(C)n4)CC3)ccn2n1 [compound 372, trans-[(S)-3-(2-Methyl-thiazol-4-yl)-isoxazolidin-2-yl]-[4-(2-methyl-[1,2,4]triazolo[1,5-a]pyridin-7-ylmethyl)-cyclohexyl]-methanone] | 53 nM | 103 nM
2 | Cc1ccc([C@@H]2CCON2C(=O)[C@H]2CC[C@H](Cc3ccn4nc(C)nc4c3)CC2)cn1 [compound 373, trans-[(S)-3-(6-Methyl-pyridin-3-yl)-isoxazolidin-2-yl]-[4-(2-methyl-[1,2,4]triazolo[1,5-a]pyridin-7-ylmethyl)-cyclohexyl]-methanone] | 110 nM | 78 nM
3 | Cc1nc2cc(C[C@H]3CC[C@H](C(=O)N4OCC[C@H]4c4cnccn4)CC3)ccn2n1 [compound 374, trans-[4-(2-Methyl-[1,2,4]triazolo[1,5-a]pyridin-7-ylmethyl)-cyclohexyl]-((S)-3-pyrazin-2-yl-isoxazolidin-2-yl)-methanone] | 36 nM | 55 nM
4 | Cc1nc([C@@H]2CCON2C(=O)[C@H]2CC[C@H](Cc3ccc4nnc(C)n4c3C)CC2)cs1 [compound 375, [4-(3,5-Dimethyl-[1,2,4]triazolo[4,3-a]pyridin-6-ylmethyl)-cyclohexyl]-[(S)-3-(2-methyl-thiazol-4-yl)-isoxazolidin-2-yl]-methanone] | 63 nM | 10 nM
5 | Cc1ccc([C@@H]2CCON2C(=O)[C@H]2CC[C@H](Cc3ccc4nnc(C)n4c3C)CC2)cn1 [compound 376, [4-(3,5-Dimethyl-[1,2,4]triazolo[4,3-a]pyridin-6-ylmethyl)-cyclohexyl]-[(S)-3-(6-methyl-pyridin-3-yl)-isoxazolidin-2-yl]-methanone] | 75 nM | 90 nM
6 | Cc1cc(C[C@H]2CC[C@H](C(=O)N3OCC[C@H]3c3coc(C)n3)CC2)c(C)cn1 [compound 377, trans-[4-[(2,5-dimethylpyridin-4-yl)methyl]cyclohexyl]-[(3S)-3-(2-methyl-1,3-oxazol-4-yl)-1,2-oxazolidin-2-yl]methanone] | 35 nM | 36 nM
7 | Cc1cncc([C@@H]2CCON2C(=O)[C@H]2CC[C@H](Cc3cc(C)c4nc(C)nn4c3)CC2)c1 [compound 378, trans-[4-[(2,8-dimethyl-[1,2,4]triazolo[1,5-a]pyridin-6-yl)methyl]cyclohexyl]-[(3S)-3-(5-methylpyridin-3-yl)-1,2-oxazolidin-2-yl]methanone] | 59 nM | 95 nM
8 | Cc1cnc([C@@H]2CCON2C(=O)[C@H]2CC[C@H](Cc3cc(F)c4nc(C)nn4c3)CC2)cn1 [compound 379, trans-[4-[(8-fluoro-2-methyl-[1,2,4]triazolo[1,5-a]pyridin-6-yl)methyl]cyclohexyl]-[(3S)-3-(5-methylpyrazin-2-yl)-1,2-oxazolidin-2-yl]methanone] | 50 nM | 191 nM
9 | Cc1nc2c(F)cc(C[C@H]3CC[C@H](C(=O)N4OCC[C@H]4c4cncc(F)c4)CC3)cn2n1 [compound 380] | 70 nM | 129 nM
10 | Cc1nc2c(Cl)cc(C[C@H]3CC[C@H](C(=O)N4OCC[C@H]4c4cnc(C)c(F)c4)CC3)cn2n1 [compound 381, [4-[(8-chloro-2-methyl-[1,2,4]triazolo[1,5-a]pyridin-6-yl)methyl]cyclohexyl]-[(3S)-3-(5-fluoro-6-methylpyridin-3-yl)-1,2-oxazolidin-2-yl]methanone] | 31 nM | 8 nM
11 | Cc1nc2c(Cl)cc(C[C@H]3CC[C@H](C(=O)N4OCC[C@H]4c4cncc(F)c4)CC3)cn2n1 [compound 382, [4-[(8-chloro-2-methyl-[1,2,4]triazolo[1,5-a]pyridin-6-yl)methyl]cyclohexyl]-[(3S)-3-(5-fluoropyridin-3-yl)-1,2-oxazolidin-2-yl]methanone] | 26 nM | 8 nM
